Measured values taken from patent US9260461B2, “Water-soluble derivatives and prodrugs of acacetin and methods of making and using thereof” (Versitech Limited, priority 2014, dated 2016).
Like-named read-outs stand apart in the source and are kept apart here.

Assays:
myocyte apoptosis = assay: TUNEL staining of myocardial slices; set-up: species or system rat; details: 3 μM; vehicle 51.1±3.8%; n=5, P<0.01 vs. vehicle
Experimental: To observe the histological changes of the ischemia-reperfusion hearts, the left ventricle was sectioned into 2-3 mm slices and drop-fixed in 10% formalin solution. After adequate fixation (a minimum 48 hours in room temperature), tissue slices were transferred into 70% ethanol for long term storage at 4° C. Tissue paraffin infiltration is processed in the tissue processor (Leica, Asp200s).
When the program was complete, tissue slices with cut side down were transferred into a mold with paraffin to form a block. The tissue block was placed on a microtome (Leica, RM2125/RT, Germany) and cut into ˜5 μm slices. The tissue slices were float on the surface of 37° C. water bath until flat and then collected onto clean glass slides. […]
Terminal deoxynucleotidyl transferase-mediated dUTP nick end labeling (TUNEL) staining of myocardial slices was performed to detect apoptosis in myocardium using the TUNEL Apoptosis detection kit (Genscript, Cat. No L00297, Piscataway, N.J., USA) according to the manufacturer's instructions. […] For quantitative analysis, TUNEL-positive cells in 10 different sectors with approximately 100-200 cells/sector were counted with high-power magnification, Axioskop 2 plus with software Axioversion (Axiovs 20v.4.8.2.0). Apoptotic cells were expressed as percentage of total cells in the field.

[1] = background statement; cited from earlier work
[2] = Solubility of the purified prodrugs versus parent compound acacetin; type: physicochemical
Source text: Prodrug B: Light yellow solid. Yield 54%. C16H11O7PNa2 (408.21). EI-MS: m/z 387.04 [M+H—Na]^+. ^1H NMR (400 MHz, DMSO-d6): δ=12.90 (s, 1H), 8.04 (d, J=8.8 Hz, 2H), 7.10 (d, J=8.8 Hz, 2H), 7.02 (s, 1H), 6.98 (s, 1H), 6.60 (s, 1H), 3.89 (s, 3H) ppm.

isolated rat hearts = assay: Ischemia-reperfusion model in isolated rat hearts (Langendorff): coronary flow rate and contractile function; set-up: species or system SD rats; details: for coronary flow rate versus control: n=10-12
Experimental: Male SD rats (250-300 g) were anesthetized with phenobarbital (30 mg/kg, i.p.), and the heart were isolated and mounted to a Langendorff heart perfusion apparatus via the aorta and perfused with Krebs-Henseleit solution at 37° C. gassed with 95% O2 and 5% CO2. A saline-filled latex balloon connected by a polyethylene catheter to a pressure transducer was inserted into the left ventricle via an incision on the left atrium to measure left ventricular (LV) pressure. The balloon volume was adjusted and kept at a diastolic pressure of 0-5 mm Hg following insertion. ECG was recorded with two electrodes placed at the apex and the aorta. Signals were continuously monitored and stored on an IBM compatible PC computer using a multiple channels data acquisition system (Chengdu Instrument Ltd, Chendu, China).
A silk suture was placed around the left anterior descending artery (LAD) 2 mm distal to the left atrial appendage. A short length of polyethylene tube was placed over the suture on LAD as an occluder and the suture was pulled and the tube to ligate the coronary artery to induce regional ischemia. After a 20-min stabilization period, the hearts were treated by vehicle (DMSO control) or 0.3, 1, or 3 μM of the parent compound acacetin (0.3, 1, or 3 μM) for 10 min, and the LAD was ligated for 30-min. The ligation was released to allow for reperfusion for 2 h. Myocardial ischemia was confirmed by a decrease in left ventricular developed pressure and specific ST-T elevation on the ECG. At completing the reperfusion, the hearts were used to perform histological and/or molecular/biochemical analysis.
Hearts were excluded from the study if one of the following criteria was observed: (1) left ventricular developed pressure (LVP) was below 80 mmHg during baseline stabilization; (2) aortic wall was damaged during cannulation leading to a leakage during perfusion; or (3) hearts suffered from sustained irreversible arrhythmia during stabilization.
To determine the mechanisms of cardioprotection, the ischemia-reperfusion model was established in isolated rat hearts using accurate concentrations of the parent compound acacetin. The hearts perfused with the Langendorff system were exposed to 30 min ischemia (coronary ligation) followed by 120 min reperfusion (FIG. 5). After a 20 min stabilization period, the heart was treated with 0.3, 1, 3 μM acacetin, or equivolume vehicle (DMSO) for 10 min and then 30 min during ischemia.

In the case of COc1ccc(-c2cc(=O)c3c(O)cc(O)cc3o2)cc1 [acacetin], the “TUNEL-positive nuclei (percentage cell number)” value (myocyte apoptosis) is listed as 20.2±4.1%, the water solubility [1] is listed as “water-insoluble” and the solubility ([2]; aqueous buffer, comparison with Tris solution pH=7.0, read-out: solubility (parent compound, compared with Prodrug A in Tris solution)) is listed as < 0.2 µg/mL. The solubility ([2]; water, H2O, read-out: solubility (parent compound, compared with Prodrug B in H2O)) was < 0.1 µg/mL, the “coronary flow rate versus control” value (isolated rat hearts; 0.3 μM, before ischemia) was 108.9±2.3% and the “coronary flow rate versus control” value (isolated rat hearts; 1 μM, before ischemia) was 122.1±4.9%. The “increase of heart contractile function (left ventricular systolic pressure and +dP/dT)” value (isolated rat hearts; 3 μM, before ischemia, n=10, P<0.01) was “around 10 % of control”, the “coronary flow rate versus control” value (isolated rat hearts; 3 μM, before ischemia) was 125.8±6.6% and the “improvement of reduced coronary flow rate, difference vs. vehicle” value (isolated rat hearts; 3 μM, during ischemia and reperfusion, P<0.01 vs. vehicle) was 16-25%. For the same compound, the “prevention of decrease of heart contractile function induced by ischemia-reperfusion, difference vs. vehicle” value (isolated rat hearts; 3 μM, P<0.01 vs. vehicle) was 15-20%.
